# Test results published in patent US7491821B2, “Inhibitors of P2X3” (Roche Palo Alto LLC, priority 2005, dated 2009).
# Structures can show the parent of a compound that is named as a salt.
row,Structure (SMILES),melting point [°C]
1,"CC(=O)N1CCN(C[C@@H](C)NC(=O)c2cc3c(-c4ccccc4)nn(C)c3s2)CC1 (as salt: salt) [compound 93, (R)-1-methyl-3-phenyl-1H-thieno[2,3-c]pyrazole-5-carboxylic acid [2-(4-acetyl-piperazin-1-yl)-1-methyl-ethyl]-amide]",133.9 to 139.9
2,"CC(=O)N1CCN(C[C@H](C)NC(=O)c2cc3c(-c4ccccc4)nn(C)c3s2)CC1 (as salt: salt) [compound 94, (S)-1-methyl-3-phenyl-1H-thieno[2,3-c]pyrazole-5-carboxylic acid [2-(4-acetyl-piperazin-1-yl)-1-methyl-ethyl]-amide]",133.5 to 140.1
